Like-named read-outs stand apart in the source and are kept apart here.
How the values were obtained:
[1] = tested on: Normal Rat; assay: Measurement of urine excretion using a nitrosated diuretic compound, intravenous; assay type: in vivo, Male Wistar rats; details: for Total Urine Volume (ml) at: 0.5 h / Total Urine Volume (ml) at: 1 h / Total Urine Volume (ml) at: 2 h: normal rat, intravenous slow bolus, 3 mg/kg (Example 12: 3 mg/kg equivalent), n = 6
[2] = tested on: Normal Rat; assay type: in vivo, Male Wistar rats; details: intravenous slow bolus, 1 mg/kg (each compound), n = 3

SMILES	melting point	other results
NS(=O)(=O)c1cc(C(=O)OCC(=O)NCCO[N+](=O)[O-])c(NCc2ccco2)cc1Cl	135 °C	
C[C@@H](CNC(=O)COC(=O)c1cc(S(N)(=O)=O)c(Cl)cc1NCc1ccco1)O[N+](=O)[O-]	125 to 138 °C (dec.)	
NS(=O)(=O)c1cc(C(=O)NCCOC(=O)[C@@H]2CCCN2[15N]=O)c(NCc2ccco2)cc1Cl	51 to 61 °C	
NS(=O)(=O)c1cc(C(=O)OC[C@H]2CCCN2N=O)c(NCc2ccco2)cc1Cl	79 to 81 °C	
CN(CCO[N+](=O)[O-])C(=O)COC(=O)c1cc(S(N)(=O)=O)c(Cl)cc1NCc1ccco1	70 to 72 °C	
NS(=O)(=O)c1cc(C(=O)OCC(=O)N2CCC(CO[N+](=O)[O-])CC2)c(NCc2ccco2)cc1Cl	115 to 117 °C	
NS(=O)(=O)c1cc(C(=O)OCC(=O)N2CCC(CCO[N+](=O)[O-])CC2)c(NCc2ccco2)cc1Cl	170 °C	
CCN(CCO[N+](=O)[O-])C(=O)COC(=O)c1cc(S(N)(=O)=O)c(Cl)cc1NCc1ccco1	60 to 62 °C	
NS(=O)(=O)c1cc(C(=O)OCC(=O)N[C@@H](CCO[N+](=O)[O-])CO[N+](=O)[O-])c(NCc2ccco2)cc1Cl	115 to 118 °C	
NS(=O)(=O)c1cc(C(=O)OCC(=O)N2CCC[C@@H]2CO[N+](=O)[O-])c(NCc2ccco2)cc1Cl	64 to 66 °C	
NS(=O)(=O)c1cc(C(=O)OCC(=O)NC[C@H](CO[N+](=O)[O-])O[N+](=O)[O-])c(NCc2ccco2)cc1Cl [Example 12, (N-((2R)-2,3-Bis(nitrooxy)propyl)carbamoyl)methyl4-chloro-2-((2-furylmethyl)amino)-5-sulfamoylbenzoate]	143 to 153 °C (dec.)	Total Urine Volume (ml) at: 0.5 h [1]: 4.2 ± 0.4 mL; Total Urine Volume (ml) at: 1 h [1]: 5.3 ± 0.5 mL; Total Urine Volume (ml) at: 2 h [1]: 6.2 ± 0.5 mL; Diuresis in the rat ([1]; rat, intravenous, 3 mg/kg equivalent): elicits diuresis
NS(=O)(=O)c1cc(C(=O)O)c(NCc2ccco2)cc1Cl [Furosemide, furosemide, reference compound]		Total Urine Volume (ml) at: 0.5 h [1]: 6.7 ± 1.2 mL; Total Urine Volume (ml) at: 1 h [1]: 8.8 ± 1.2 mL; Total Urine Volume (ml) at: 2 h [1]: 11.0 ± 1.3 mL; Total Urine Volume (ml) at: 1 h ([2]; 1 h, mean ± spread): 3.3 ± 1.7 mL; Total Urine Volume (ml) at: 2 h ([2]; 2 h): 3.3 ± 1.7 mL; Total Urine Volume (ml) at: 3 h ([2]; 3 h): 5.0 ± 0.6 mL

From US7282519B2 (priority 2003, dated 2007)
